Bounds are passed on as bounds.

Experimental findings from ChEMBL document CHEMBL1128364 (J Med Chem, 1995) are described below.

Test [1] deals with T1, Vasopressin V1a receptor (Rattus norvegicus, UniProt P30560). Briefly: (§1) Anti-vasopressor activity at V1a receptor. The conditions noted are these: read-out: pA2 (converted).
The target of test [2] is T2, Oxytocin receptor (Rattus norvegicus, UniProt P70536).
T2 sequence (P70536 whole entry): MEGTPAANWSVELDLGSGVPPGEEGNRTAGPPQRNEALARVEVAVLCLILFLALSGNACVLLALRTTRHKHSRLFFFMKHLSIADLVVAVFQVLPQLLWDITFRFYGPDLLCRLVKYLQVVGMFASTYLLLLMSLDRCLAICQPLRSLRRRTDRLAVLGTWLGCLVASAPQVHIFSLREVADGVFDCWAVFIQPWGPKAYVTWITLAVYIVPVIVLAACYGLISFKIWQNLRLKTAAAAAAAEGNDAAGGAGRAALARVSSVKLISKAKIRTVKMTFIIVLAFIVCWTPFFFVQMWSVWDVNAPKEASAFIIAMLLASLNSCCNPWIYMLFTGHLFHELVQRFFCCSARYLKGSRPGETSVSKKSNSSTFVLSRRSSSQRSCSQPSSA
The test can be described thus: In vitro anti-oxytocic activity with 0.5 mM Mg2+. The conditions noted are these: read-out: pA2 (converted).

Test [3] concerns Rattus norvegicus. The test can be described thus: In vivo anti-oxytocic activity was determined. Format: functional, organism-based. As to conditions: read-out: pA2 (converted).
For test [4], the target named is Vasopressin V2 receptor (Rattus norvegicus, UniProt Q00788). The test can be described thus: (§2) Antidiuretic activity at V2 receptor. Format: tissue-based, Urine. As to conditions: read-out: pA2 (converted).
Chain of Vasopressin V2 receptor (Q00788 whole entry): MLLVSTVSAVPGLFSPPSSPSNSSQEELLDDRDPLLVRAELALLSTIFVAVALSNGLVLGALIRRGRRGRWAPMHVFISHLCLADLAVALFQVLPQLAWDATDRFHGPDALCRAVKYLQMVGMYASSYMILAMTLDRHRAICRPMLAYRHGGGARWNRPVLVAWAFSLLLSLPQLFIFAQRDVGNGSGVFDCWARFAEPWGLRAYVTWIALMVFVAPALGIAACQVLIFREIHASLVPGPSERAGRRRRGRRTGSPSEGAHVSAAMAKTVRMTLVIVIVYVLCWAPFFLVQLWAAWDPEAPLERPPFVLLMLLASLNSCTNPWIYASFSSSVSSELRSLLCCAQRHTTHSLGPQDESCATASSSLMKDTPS
In test [5] the target is T2, Oxytocin receptor. The test can be described thus: In vitro antioxycic activity with out Mg2+. As to conditions: read-out: pA2 (converted).
Test [6] concerns the target T3, Oxytocin receptor (Rattus norvegicus) (UniProt P70536).
T3 sequence (whole entry): T2 sequence (P70536 whole entry)
The test can be described thus: (§3) Compound was evaluated for the oxytocic activity with out Mg2+.

The target in test [7] is Vasopressin V2 receptor (Rattus norvegicus) (UniProt Q00788). The test can be described thus: Antidiuretic activity at V2 receptor. As to conditions: Urine.
Chain of Vasopressin V2 receptor (Rattus norvegicus) (Q00788 whole entry): as above
Test [8] deals with T3, Oxytocin receptor (Rattus norvegicus). Briefly: (§4) Compound was evaluated for the oxytocic activity with 0.5 mM Mg2+.
In test [9] the test system is Rattus norvegicus. The test can be described thus: (§5) In vivo activity for the anti-oxytocic activity. The format is functional.
Test [10] addresses T1, Vasopressin V1a receptor. Briefly: Compound was evaluated for the anti-vasopressor activity at V1a receptor.. The conditions noted are these: read-out: pA2 (converted).
The target in test [11] is T2, Oxytocin receptor. The test can be described thus: In vitro activity was determined for the anti-oxytocic activity with 0.5 mM Mg2+. As to conditions: read-out: pA2 (converted).
The target in test [12] is T2, Oxytocin receptor. The test can be described thus: In vitro activity for the anti-oxytocic activity with out Mg2+. The conditions noted are these: read-out: pA2 (converted).
Test [13] concerns Rattus norvegicus. The description is as §5. The format is functional, organism-based. As to conditions: read-out: pA2 (converted).
In test [14] the target is Vasopressin V2 receptor (Rattus norvegicus) (UniProt Q00788). Described as §2. As to conditions: Urine. The format is tissue-based.
The target of test [15] is Vasopressin V1a receptor (Rattus norvegicus) (UniProt P30560). The description is as §1.
Chain of Vasopressin V1a receptor (Rattus norvegicus) (P30560 whole entry, looked up): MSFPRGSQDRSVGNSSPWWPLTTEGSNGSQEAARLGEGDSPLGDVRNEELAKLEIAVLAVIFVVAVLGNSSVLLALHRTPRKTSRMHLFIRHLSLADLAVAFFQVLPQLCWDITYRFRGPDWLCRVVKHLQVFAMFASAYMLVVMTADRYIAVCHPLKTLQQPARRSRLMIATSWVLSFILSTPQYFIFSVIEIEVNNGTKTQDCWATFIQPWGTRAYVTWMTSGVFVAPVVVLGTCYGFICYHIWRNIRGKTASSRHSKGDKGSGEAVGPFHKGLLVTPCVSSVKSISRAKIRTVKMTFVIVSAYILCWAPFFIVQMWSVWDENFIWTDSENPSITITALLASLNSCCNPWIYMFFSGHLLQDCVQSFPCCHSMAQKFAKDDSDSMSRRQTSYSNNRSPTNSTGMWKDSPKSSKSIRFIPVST
Test [16] concerns the target T2, Oxytocin receptor. The test can be described thus: In vitro activity for the anti-oxytocic activity with out Mg2+. As to conditions: read-out: pA2 (converted).
Test [17] addresses T2, Oxytocin receptor. The test is described as §4. The conditions noted are these: read-out: pA2 (converted).
Test [18] addresses T2, Oxytocin receptor. Described as §3. As to conditions: read-out: pA2 (converted).

T1 sequence (P30560 whole entry): as the sequence (P30560 whole entry, looked up) above

Consider `CC[C@H](C)[C@@H]1NC(=O)[C@H](Cc2ccc(OC)cc2)NC(=O)CC2(CCCCC2)SSC[C@H](C(=O)N2CCC[C@H]2C(=O)N[C@@H](CCCN)C(=O)N[C@@H](Cc2ccc(O)cc2)C(N)=O)NC(=O)[C@H](CC(N)=O)NC(=O)[C@H]([C@@H](C)O)NC1=O`, for which the Kb is 148 nM in test [1]; 38.9 nM in [2]; 83.2 nM in test [3]; 3160 nM in test [4]; 11 nM in test [5].

With `CC[C@H](C)[C@@H]1NC(=O)[C@H](Cc2ccc(O)cc2)NC(=O)[C@@H](N)CSSC[C@@H](C(=O)N2CCC[C@H]2C(=O)N[C@@H](CC(C)C)C(=O)NCC(N)=O)NC(=O)[C@H](CC(N)=O)NC(=O)[C@H](CCC(N)=O)NC1=O`, the Oxytocic activity came to 520 U mg-1 in [6] and 486 U mg-1 in test [8]. Further, the Antidiuretic activity in [7] came to 4 U mg-1.

`CC[C@H](C)[C@@H]1NC(=O)[C@H](Cc2ccc(O)cc2)NC(=O)[C@H](N)CSSC[C@H](C(=O)N2CCC[C@H]2C(=O)N[C@@H](CC(C)C)C(=O)NCC(N)=O)NC(=O)[C@H](CC(N)=O)NC(=O)[C@H](CCC(N)=O)NC1=O` showed an Oxytocic activity in test [6] of 0.62 U mg-1. The molecule also showed an Antidiuretic activity in test [7] of less than 0.002 U mg-1.

With `CCOc1ccc(C[C@H]2NC(=O)CC3(CCCCC3)SSC[C@H](C(=O)N3CCC[C@H]3C(=O)N[C@@H](CCCN=C(N)N)C(=O)NCC(N)=O)NC(=O)[C@H](CC(N)=O)NC(=O)[C@H](C(C)C)NC(=O)[C@H](Cc3ccccc3)NC2=O)cc1` [listing 1 of 2 here], the ED in test [9] was determined as 4.8 nM/kg.

With `COc1ccc(C[C@@H]2NC(=O)CC3(CCCCC3)SSC[C@@H](C(=O)N3CCC[C@H]3C(=O)N[C@@H](CCCN=C(N)N)C(=O)NCC(N)=O)NC(=O)[C@H](CC(N)=O)NC(=O)[C@H](CCC(N)=O)NC(=O)[C@H](Cc3ccccc3)NC2=O)cc1`, the Kb in test [10] was 2.4 nM; in test [11] it was 57.5 nM; in [12], 7.41 nM.

`COc1ccc(C[C@@H]2NC(=O)CC3(CCCCC3)SSC[C@H](C(=O)N3CCC[C@H]3C(=O)N[C@@H](CCCN=C(N)N)C(=O)NCC(N)=O)NC(=O)[C@H](CC(N)=O)NC(=O)[C@H](CCC(N)=O)NC(=O)[C@H](Cc3ccccc3)NC2=O)cc1` [listing 1 of 2 here]: in [9], the ED came to 17 nM/kg.

Consider `CCOc1ccc(C[C@@H]2NC(=O)CC3(CCCCC3)SSC[C@@H](C(=O)N3CCC[C@H]3C(=O)N[C@@H](CCCN=C(N)N)C(=O)NCC(N)=O)NC(=O)[C@H](CC(N)=O)NC(=O)[C@H](C(C)C)NC(=O)[C@H](Cc3ccccc3)NC2=O)cc1`, for which the results for the ED in test [9], in test [14] and in [15] were 13 nM/kg, 1.9 nM/kg and 0.14 nM/kg, respectively. The Kb in [1] was 6.92 nM; in [13] it was 182 nM.

For the molecule `CCOc1ccc(C[C@H]2NC(=O)CC3(CCCCC3)SSC[C@H](C(=O)N3CCC[C@H]3C(=O)N[C@@H](CCCN=C(N)N)C(=O)NCC(N)=O)NC(=O)[C@H](CC(N)=O)NC(=O)[C@H](C(C)C)NC(=O)[C@H](Cc3ccccc3)NC2=O)cc1` [listing 2 of 2 here], the Kb in test [1] was 8.71 nM; in test [13] it was 69.2 nM.

Consider `N=C(N)NCCC[C@H](NC(=O)[C@@H]1CCCN1C(=O)[C@@H]1CSSC[C@H](N)C(=O)N[C@@H](Cc2ccc(O)cc2)C(=O)N[C@@H](Cc2ccccc2)C(=O)N[C@@H](CCC(N)=O)C(=O)N[C@@H](CC(N)=O)C(=O)N1)C(=O)NCC(N)=O`, for which, in [7], the Antidiuretic activity was determined as 323 U mg-1. The molecule also showed an Oxytocic activity in [8] of 25.5 U mg-1.

Turning to `COc1ccc(C[C@@H]2NC(=O)CC3(CCCCC3)SSC[C@H](C(=O)N3CCC[C@H]3C(=O)N[C@@H](CCCN=C(N)N)C(=O)NCC(N)=O)NC(=O)[C@H](CC(N)=O)NC(=O)[C@H](CCC(N)=O)NC(=O)[C@H](Cc3ccccc3)NC2=O)cc1` [listing 2 of 2 here], the Kb is 13.5 nM in test [1]; 25.1 nM in test [11]; 13.5 nM in [16]; 251 nM in [13]; 2880 nM in test [4].

Turning to `NC(=O)CC[C@@H]1NC(=O)[C@H](Cc2ccccc2)NC(=O)[C@H](Cc2ccc(O)cc2)NC(=O)[C@@H](N)CSSC[C@H](C(=O)N2CCC[C@H]2C(=O)N[C@@H](CCCN=C(N)N)C(=O)NCC(N)=O)NC(=O)[C@H](CC(N)=O)NC1=O`, the Kb was 5750 nM in test [17] and 214 nM in test [18].

On to `CC[C@H](C)[C@@H]1NC(=O)[C@H](Cc2ccc(OC)cc2)NC(=O)CC2(CCCCC2)SSC[C@@H](C(=O)N2CCC[C@H]2C(=O)N[C@@H](CCCN)C(=O)NCC(N)=O)NC(=O)[C@H](CC(N)=O)NC(=O)[C@H](CCC(N)=O)NC1=O`, for which the figures for the Kb in test [1], in test [2] and in test [5] were 11 nM, 13.2 nM and 3.02 nM, respectively. This molecule registered an Antidiuretic activity in [14] of 0.01 U mg-1. Besides, the ED in [15] is 0.8 nM/kg.
